{"source": "patent US20250213536A1", "about": "“DETECTING AND TREATING GROWTH HORMONE DEFICIENCY” (Lumos Pharma, Inc., priority 2015, published 2025)", "key": {"[1]": {"test_system": "hypothalamic-pituitary GH axis", "assay": "MK-0677 challenge test: peak serum GH after a single oral dose of MK-0677", "format": "in vivo, human", "settings": "for Peak GH response to MK-0677: baseline; for Peak GH to MK-0677: single dose 0.8 mg/kg", "method": "Testing for GH secretion with MK-0677: A single, oral dose of MK-0677 is administered to a patient and sufficient blood samples are taken prior to and after administration (e.g., 15 minutes before and t=0, 30, 60, 90, and 120 minutes after administration) to measure the peak GH secretion. An example of the amount of MK-0677 administered is 0.8 mg/kg. In an aspect, the patient being tested will have fasted overnight (abstinence from all food and drink but water). [table] Subjects will report to the clinic in the morning after an overnight fast from all food and drink except water. A catheter will be inserted approximately 1 hour before the administration of MK 0677. Two baseline measures will be taken a t=−15 minutes and t=0 minutes (time at which subject is administered the dose). Subjects will be given a dose of 0.8 mg/kg MK-0677 as 2-mg tablets to be taken orally. Blood samples will be taken subsequently at t=30, 60, 90, 120 minutes. In addition at t=−15 and 120 minutes, samples will be drawn for a serum chemistry panel. At the conclusion of the test, the catheter will be removed. All blood samples will be analyzed for GH, prolactin, and cortisol by a core clinical laboratory."}, "GHD children [2]": {"test_system": "GHD children", "settings": "cited from earlier work"}, "GHD children [3]": {"test_system": "GHD children", "assay": "Phase IIb therapeutic study in pediatric GH deficiency: height velocity after 6 months of treatment", "format": "in vivo, human", "settings": "for Delta Height Velocity, Biological Age (BA) / Delta Height Velocity, Chronological Age (CA): general population of GHD children; for height velocity in the LOW group compared with the EQUAL group, in words: 6 months of treatment; for growth (height velocity) response, GH compared with MK-0677, in words: 6 months", "method": "In the Phase IIb study, 24 children were treated with 0.8 mg/kg/d MK-0677. […] This can also be expressed as a height velocity standard deviation (SD) (or standard deviations-also SD) at baseline of 0.4±2.1 and 3.5±2.0 at 6 months. […] Change in height velocity SD for chronological age was 0.4±2.1 for placebo and 3.5±2.0 for treatment with MK-0677 after 6 months at a dose of 0.8 mg/kg/d. Twenty of the 22 placebo-treated children were then treated with standard Growth Hormone (GH) treatment (daily subcutaneous injection of rhGH, 0.043 mg/kg/day). […] Therapeutic Study in Pediatric GH Deficiency: A Phase IIb study was run to determine whether or not MK-0677 could be used to treat pediatric GHD. MK-0677 was compared against placebo and rhGH injections according to the following protocol. Bone age was determined using the atlas matching method of Greulich and Pyle. Protocol: 6 months of once-daily oral sucrose formulation solution. Tables 6A-6E show the height velocity for EQUAL growth potential children treated with either 0.8 mg/kg/daily po or 0.4 mg/kg/daily po MK-0677 compared with rhGH (0.3 mg/kg/week; ˜42 μg/kg/daily sc injection). […] Values are mean (SD). Tables 7A-7C compare the height velocity for low growth potential patients (LOW) with equivalent growth potential compared to rhGH (EQUAL). Values are mean (SD)."}, "[4]": {"settings": "Adequate GH Secretion Potential, MK-0677 0.8 mg/kg/d (N = 15)"}, "[5]": {"settings": "Low GH Secretion Potential, MK-0677 0.8 mg/kg/d (N = 9)"}, "[6]": {"settings": "Adequate GH Secretion Potential, GH 0.3 mg/kg/wk (N = 15)"}, "[7]": {"settings": "GH after placebo 0.3 mg/kg/week (n = 20)"}, "[8]": {"settings": "Low GH Secretion Potential, GH 0.3 mg/kg/wk (N = 5)"}}, "note": "Entries after “also recorded” stand apart in the source; their conditions may differ. Where a name gives a salt, the structure may show the parent alone.", "data": [{"molecule": "CC(C)(N)C(=O)N[C@H](COCc1ccccc1)C(=O)N1CCC2(CC1)CN(S(C)(=O)=O)c1ccccc12", "note": "[MK-0677, Ibutamoren mesylate]", "values": [{"measurement": "Peak GH response to MK-0677", "setting": "[1]; Adequate GH Secretion Potential, group later given Placebo followed by rhGH (N = 15)", "value": "39.2 (28.8) μg/L"}, {"measurement": "Peak GH response to MK-0677", "setting": "[1]; Adequate GH Secretion Potential, group later treated with MK-0677 0.8 mg/kg/d (N = 15)", "value": "41.3 (27.8) μg/L"}, {"measurement": "Peak GH response to MK-0677", "setting": "[1]; Low GH Secretion Potential, group later given Placebo followed by rhGH (N = 5)", "value": "2.9 (0.6) μg/L"}, {"measurement": "Peak GH response to MK-0677", "setting": "[1]; Low GH Secretion Potential, group later treated with MK-0677 0.8 mg/kg/d (N = 9)", "value": "3.2 (1.3) μg/L"}, {"measurement": "Peak GH response to MK-0677", "setting": "[1]; equivalent growth potential, Placebo group later switched to rhGH (N = 13)", "value": "51.2 (25.3) μg/L"}, {"measurement": "Peak GH response to MK-0677", "setting": "[1]; equivalent growth potential, group later treated with MK-0677 0.8 mg/kg (N = 14)", "value": "43.7 (27.1) μg/L"}, {"measurement": "Peak GH response to MK-0677", "setting": "[1]; low growth potential, Placebo group later switched to rhGH (N = 9)", "value": "6.7 (5.9) μg/L"}, {"measurement": "Peak GH response to MK-0677", "setting": "[1]; low growth potential, group later treated with MK-0677 0.8 mg/kg (N = 10)", "value": "3.6 (1.7) μg/L"}, {"measurement": "Peak GH to MK-0677", "setting": "[1]; All subjects (73)", "value": "32 ± 3.5", "unit": "µg/L"}, {"measurement": "Peak GH to MK-0677", "setting": "[1]; High Potential (≥5 μg/L), 49 subjects", "value": "43 ± 30", "unit": "µg/L"}, {"measurement": "Peak GH to MK-0677", "setting": "[1]; Low Potential (≤5 μg/L), 24 subjects", "value": "3.0 ± 1.0", "unit": "µg/L"}, {"measurement": "growth rate at 6 months", "setting": "GHD children [2]; MK-0677 0.8 mg/kg/d, 24 children, Merck Phase IIb study", "value": "6.8±2.0", "unit": "cm/y"}, {"measurement": "Change in height velocity SD for chronological age", "setting": "GHD children [2]; MK-0677 0.8 mg/kg/d, after 6 months", "value": "3.5±2.0"}, {"measurement": "change in growth rate", "setting": "GHD children [2]; MK-0677 0.8 mg/kg/d, baseline to 6 months, 24 children", "value": "3.4±2.1", "unit": "cm/y"}, {"measurement": "Delta Height Velocity, Biological Age (BA)", "setting": "GHD children [3]; 0.4 mg/kg/d (n = 22)", "value": "2.6 (1.5) standard deviations"}, {"measurement": "Delta Height Velocity, Chronological Age (CA)", "setting": "GHD children [3]; 0.4 mg/kg/d (n = 22)", "value": "2.6 (1.7) standard deviations"}, {"measurement": "Delta Height Velocity, Biological Age (BA)", "setting": "GHD children [3]; 0.8 mg/kg/d (n = 22)", "value": "3.3 (1.8) standard deviations"}, {"measurement": "Delta Height Velocity, Chronological Age (CA)", "setting": "GHD children [3]; 0.8 mg/kg/d (n = 22)", "value": "3.5 (2.0) standard deviations"}, {"measurement": "height velocity in the LOW group compared with the EQUAL group, in words", "setting": "GHD children [3]", "value": "lower than with the EQUAL group"}, {"measurement": "Delta height velocity", "setting": "GHD children [3]; [4]", "value": "3.4 (1.4) cm/year"}, {"measurement": "Height velocity SD for BA", "setting": "GHD children [3]; [4]", "value": "3.8 (1.3)"}, {"measurement": "Height velocity SD for CA", "setting": "GHD children [3]; [4]", "value": "3.8 (1.7)"}, {"measurement": "Height Velocity", "setting": "GHD children [3]; EQUAL (N = 12), 6-Month MK 0.4 mg/kg/day", "value": "6.2 (1.8)"}, {"measurement": "Height Velocity", "setting": "GHD children [3]; EQUAL (N = 14), 6-Month MK 0.8 mg/kg/day", "value": "7.6 (1.3)"}, {"measurement": "growth (height velocity) response, GH compared with MK-0677, in words", "setting": "GHD children [3]; EQUAL patient group (peak GH ≥5 μg/L to MK-0677 and baseline IGF-I >30 μg/L)", "value": "equal to GH treatment; also recorded: does not differ significantly from that to GH; also recorded: equivalent growth response"}, {"measurement": "Height Velocity", "setting": "GHD children [3]; LOW (N = 10), 6-Month MK 0.4 mg/kg/day", "value": "5.8 (2.1)"}, {"measurement": "Height Velocity", "setting": "GHD children [3]; LOW (N = 10), 6-Month MK 0.8 mg/kg/day", "value": "5.8 (2.2)"}, {"measurement": "Height Velocity", "setting": "GHD children [3]; LOW and EQUAL combined, 6-Month MK 0.4 mg/kg/day (N = 22), mean (SD)", "value": "6.0 (1.9)"}, {"measurement": "Height Velocity", "setting": "GHD children [3]; LOW and EQUAL combined, 6-Month MK 0.8 mg/kg/day (N = 24), mean (SD)", "value": "6.9 (1.9)"}, {"measurement": "growth (height velocity) response, GH compared with MK-0677, in words", "setting": "GHD children [3]; LOW growth potential / severely GH deficient patients", "value": "inadequate growth response; also recorded: less responsive"}, {"measurement": "Delta height velocity", "setting": "GHD children [3]; [5]", "value": "2.3 (2.0) cm/year"}, {"measurement": "Height velocity SD for BA", "setting": "GHD children [3]; [5]", "value": "2.6 (2.4)"}, {"measurement": "Height velocity SD for CA", "setting": "GHD children [3]; [5]", "value": "2.9 (2.5)"}, {"measurement": "Height Velocity", "setting": "GHD children [3]; equivalent growth potential, after 6 months of MK-677 0.8 mg/kg (N = 14)", "value": "7.6 (1.3) cm/year"}, {"measurement": "Height Velocity", "setting": "GHD children [3]; low growth potential, after 6 months of MK-677 0.8 mg/kg (N = 10)", "value": "5.8 (2.2) cm/year"}, {"measurement": "growth response, GH compared with MK-0677, in words", "setting": "GHD children [3]; patients with adequate GH secretion potential (Table 4B)", "value": "comparable with GH and was not statistically different"}]}, {"molecule": "rhGH: recombinant human growth hormone given as daily subcutaneous injection, standard GH therapy", "values": [{"measurement": "height velocity SD score for chronological age", "setting": "GHD children [2]; rhGH 0.043 mg/kg/day daily sc, 20 children after 6 months of placebo", "value": "7.6±5.6"}, {"measurement": "increase in height velocity SD, GH compared with MK-0677", "setting": "GHD children [2]; rhGH 0.043 mg/kg/day vs MK-0677 0.8 mg/kg/d", "value": "twice as high"}, {"measurement": "height velocity in the LOW group compared with the EQUAL group, in words", "setting": "GHD children [3]", "value": "greater in the LOW group than in the EQUAL group"}, {"measurement": "Delta height velocity", "setting": "GHD children [3]; [6]", "value": "4.9 (2.9) cm/year"}, {"measurement": "Height velocity SD for BA", "setting": "GHD children [3]; [6]", "value": "4.9 (2.6)"}, {"measurement": "Height velocity SD for CA", "setting": "GHD children [3]; [6]", "value": "5.1 (2.8)"}, {"measurement": "Height Velocity", "setting": "GHD children [3]; EQUAL (N = 11), 6-Month rhGH", "value": "8.8 (1.8)"}, {"measurement": "Delta Height Velocity, Biological Age (BA)", "setting": "GHD children [3]; [7]", "value": "6.2 (3.4) standard deviations"}, {"measurement": "Delta Height Velocity, Chronological Age (CA)", "setting": "GHD children [3]; [7]", "value": "7.6 (5.6) standard deviations"}, {"measurement": "Height Velocity", "setting": "GHD children [3]; LOW (N = 9), 6-Month rhGH", "value": "14.0 (4.1)"}, {"measurement": "Height Velocity", "setting": "GHD children [3]; LOW and EQUAL combined, 6-Month GH 0.3 mg/kg/week (N = 20), mean (SD)", "value": "11.1 (4.0)"}, {"measurement": "Height Velocity", "setting": "GHD children [3]; LOW and EQUAL combined, GH (12-Month): 6 months rhGH after 6 months placebo (N = 20), paired T-test table", "value": "11.14 (3.96)"}, {"measurement": "growth (height velocity) response, GH compared with MK-0677, in words", "setting": "GHD children [3]; LOW growth potential / severely GH deficient patients, listed as GH", "value": "extremely sensitive to GH; also recorded: increase in height velocity"}, {"measurement": "Delta height velocity", "setting": "GHD children [3]; [8]", "value": "12.3 (4.4) cm/year"}, {"measurement": "Height velocity SD for BA", "setting": "GHD children [3]; [8]", "value": "10.0 (2.2)"}, {"measurement": "Height velocity SD for CA", "setting": "GHD children [3]; [8]", "value": "15.1 (5.1)"}, {"measurement": "Height Velocity", "setting": "GHD children [3]; equivalent growth potential, after 6 months of GH ~42 μg/kg/day (N = 11)", "value": "8.8 (1.8) cm/year"}, {"measurement": "Height Velocity", "setting": "GHD children [3]; low growth potential, after 6 months of GH ~42 μg/kg/day (N = 9)", "value": "14.0 (4.1) cm/year"}, {"measurement": "growth (height velocity) response, GH compared with MK-0677, in words", "setting": "GHD children [3]; overall patient group, GH 0.3 mg/kg/week sc vs MK-0677 0.8 mg/kg/day oral", "value": "superior to MK-0677"}, {"measurement": "growth response, GH compared with MK-0677, in words", "setting": "GHD children [3]; patients with low GH secretion potential (Table 3B)", "value": "superior"}]}]}
